Reference: patent US11566007B2, “Ras inhibitors” (Revolution Medicines, Inc., priority 2019, dated 2023)
Like-named read-outs stand apart in the source and are kept apart here.

What was measured:
KRAS Q61H = KRAS Q61H (Homo sapiens (Human), UniProt P01116+P62937, Q61H); experiment: Ras-Raf (BRAF RBD) disruption / FRET / MOA assay, KRAS Q61H; format: biochemical; details: Ras-Raf disruption/FRET/MOA assay; class symbols; read-out: KRAS Q61H FRET data IC50
Method in brief: (§1)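 Compounds (30 μM top final, 10-point 3-fold dilutions) incubated 3 h at 25° C with nucleotide-loaded Ras, cyclophilin A and BRAF RBD. Detection with 10 nM anti-His Eu-W1024 and 50 nM anti-GST allophycocyanin over another 1.5 h. Lowered TR-FRET ratio relative to DMSO wells gives IC50.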

NRAS Q61R = NRAS Q61R (Homo sapiens (Human), UniProt P01111+P62937, Q61R); experiment: Ras-Raf (BRAF RBD) disruption / FRET / MOA assay, NRAS Q61R; format: biochemical; details: NRAS Q61R; Ras-Raf disruption/FRET/MOA assay; read-out: IC50* NRAS Q61R FRET data
Chain of NRAS Q61R (P01111 whole entry Q61R): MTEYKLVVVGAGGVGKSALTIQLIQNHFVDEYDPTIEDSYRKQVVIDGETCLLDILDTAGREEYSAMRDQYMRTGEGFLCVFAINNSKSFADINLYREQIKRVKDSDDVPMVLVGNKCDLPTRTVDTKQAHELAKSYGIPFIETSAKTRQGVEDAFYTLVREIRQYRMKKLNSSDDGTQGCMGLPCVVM
Chain of NRAS Q61R (P62937 whole entry): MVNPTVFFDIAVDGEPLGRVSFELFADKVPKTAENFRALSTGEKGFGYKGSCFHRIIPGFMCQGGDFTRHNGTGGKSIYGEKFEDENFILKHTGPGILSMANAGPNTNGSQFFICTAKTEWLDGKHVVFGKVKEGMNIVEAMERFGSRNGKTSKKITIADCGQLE
Method in brief: as §1

NRAS WT = NRAS WT (Homo sapiens (Human), UniProt P01111+P62937); experiment: Ras-Raf (BRAF RBD) disruption / FRET / MOA assay, NRAS WT; format: biochemical; details: read-out: IC50* NRAS WT FRET data
Chain of NRAS WT (P01111 whole entry): as the sequence (P01111 whole entry Q61R) above, with R61Q counted along it
Chain of NRAS WT (P62937 whole entry): as the sequence (P62937 whole entry) above
Method in brief: as §1

NCI-H358 (K-Ras G12C) = experiment: CellTiter-Glo cell viability assay, NCI-H358; format: cell-based, human; details: Homo sapiens, NCI-H358, 120 h, class symbols
Method in brief: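 Viability of K-Ras mutant lines is measured by ATP luminescence after five days of compound treatment. Percent of DMSO control is calculated and dose-response data are fitted with a four-parameter logistic equation.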

K-Ras G13C = K-Ras G13C (Homo sapiens (Human), UniProt P01116+P62937, G13C); experiment: Ras-Raf (BRAF RBD) disruption / FRET / MOA assay, KRAS G13C; format: biochemical; details: KRAS G13C; Ras-Raf disruption/FRET/MOA assay; read-out: IC50* KRAS G13C FRET data
Chain of K-Ras G13C (P01116-2 other isoform, or with tags, fused parts or gaps G13C): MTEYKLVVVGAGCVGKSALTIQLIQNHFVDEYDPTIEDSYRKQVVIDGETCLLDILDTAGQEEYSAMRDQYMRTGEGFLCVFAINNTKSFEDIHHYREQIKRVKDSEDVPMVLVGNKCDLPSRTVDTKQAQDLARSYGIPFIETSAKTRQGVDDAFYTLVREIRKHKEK
Chain of K-Ras G13C (P62937 whole entry): as the sequence (P62937 whole entry) above
Method in brief: (§2)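 Compound-driven ternary complex of nucleotide-loaded Ras with cyclophilin A, disrupting BRAF RBD binding. 10-point 3-fold dilution from 30 μM final, 3 h at 25° C, then anti-His Eu-W1024 (10 nM) and anti-GST allophycocyanin (50 nM) for 1.5 h. IC50 from TR-FRET ratio decrease versus DMSO.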

KRAS G12S = KRAS G12S (Homo sapiens (Human), UniProt P01116+P62937, G12S); experiment: Ras-Raf (BRAF RBD) disruption / FRET / MOA assay, KRAS G12S; format: biochemical; details: Ras-Raf disruption/FRET/MOA assay; class symbols; read-out: KRAS G12S FRET data IC50
Chain of KRAS G12S (P01116-2 other isoform, or with tags, fused parts or gaps G12S): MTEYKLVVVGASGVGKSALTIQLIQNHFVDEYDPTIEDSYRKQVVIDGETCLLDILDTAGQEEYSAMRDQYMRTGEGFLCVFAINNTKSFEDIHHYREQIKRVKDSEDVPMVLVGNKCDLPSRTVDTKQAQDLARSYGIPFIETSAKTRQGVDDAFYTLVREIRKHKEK
Chain of KRAS G12S (P62937 whole entry): as the sequence (P62937 whole entry) above
Method in brief: as §2

K-Ras G12C = K-Ras G12C (Homo sapiens (Human), UniProt P01116+P62937, G12C); experiment: Ras-Raf (BRAF RBD) disruption / FRET / MOA assay, KRAS G12C; format: biochemical; details: KRAS G12C, Ras-Raf disruption/FRET/MOA assay
Chain of K-Ras G12C (P01116-2 other isoform, or with tags, fused parts or gaps G12C): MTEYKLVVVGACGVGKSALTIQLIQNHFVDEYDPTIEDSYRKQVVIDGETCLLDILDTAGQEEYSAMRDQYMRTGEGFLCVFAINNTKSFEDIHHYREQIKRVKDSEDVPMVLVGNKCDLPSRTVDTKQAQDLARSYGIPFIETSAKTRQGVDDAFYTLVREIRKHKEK
Chain of K-Ras G12C (P62937 whole entry): as the sequence (P62937 whole entry) above
Method in brief: as §2

NRAS G12C = NRAS G12C (Homo sapiens (Human), UniProt P01111+P62937, G12C); experiment: Ras-Raf (BRAF RBD) disruption / FRET / MOA assay, NRAS G12C; format: biochemical
Chain of NRAS G12C (P01111 whole entry G12C): as the sequence (P01111 whole entry Q61R) above, with G12C, R61Q counted along it
Chain of NRAS G12C (P62937 whole entry): as the sequence (P62937 whole entry) above
Method in brief: as §2

KRAS G13D = KRAS G13D (Homo sapiens (Human), UniProt P01116+P62937, G13D); experiment: Ras-Raf (BRAF RBD) disruption / FRET / MOA assay, KRAS G13D; format: biochemical
Chain of KRAS G13D (P01116-2 other isoform, or with tags, fused parts or gaps G13D): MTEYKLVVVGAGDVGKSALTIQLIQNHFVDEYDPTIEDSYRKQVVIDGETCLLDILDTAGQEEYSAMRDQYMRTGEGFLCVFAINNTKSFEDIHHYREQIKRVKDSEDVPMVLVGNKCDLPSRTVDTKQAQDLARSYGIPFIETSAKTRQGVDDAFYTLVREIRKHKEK
Chain of KRAS G13D (P62937 whole entry): as the sequence (P62937 whole entry) above
Method in brief: as §2

KRAS G12D = KRAS G12D (Homo sapiens (Human), UniProt P01116+P62937, G12D); experiment: Ras-Raf (BRAF RBD) disruption / FRET / MOA assay, KRAS G12D; format: biochemical; details: Ras-Raf disruption/FRET/MOA assay; class symbols; read-out: KRAS G12D FRET data IC50
Chain of KRAS G12D (P01116-2 other isoform, or with tags, fused parts or gaps G12D): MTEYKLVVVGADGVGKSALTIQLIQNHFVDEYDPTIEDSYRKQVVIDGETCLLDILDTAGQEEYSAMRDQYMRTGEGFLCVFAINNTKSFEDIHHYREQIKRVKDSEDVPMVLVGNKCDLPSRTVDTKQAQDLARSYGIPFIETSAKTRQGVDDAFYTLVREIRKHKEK
Chain of KRAS G12D (P62937 whole entry): as the sequence (P62937 whole entry) above
Method in brief: as §2

KRAS WT = KRAS WT (Homo sapiens (Human), UniProt P01116+P62937); experiment: Ras-Raf (BRAF RBD) disruption / FRET / MOA assay, KRAS WT; format: biochemical; details: read-out: IC50* KRAS WT FRET data
Chain of KRAS WT (P01116-2 other isoform, or with tags, fused parts or gaps): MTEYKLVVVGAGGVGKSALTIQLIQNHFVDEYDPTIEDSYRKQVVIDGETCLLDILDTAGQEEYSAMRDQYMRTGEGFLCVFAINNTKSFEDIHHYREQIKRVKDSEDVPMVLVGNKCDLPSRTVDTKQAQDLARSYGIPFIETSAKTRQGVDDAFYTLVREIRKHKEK
Chain of KRAS WT (P62937 whole entry): as the sequence (P62937 whole entry) above
Method in brief: as §2

NRAS Q61K = NRAS Q61K (Homo sapiens (Human), UniProt P01111+P62937, Q61K); experiment: Ras-Raf (BRAF RBD) disruption / FRET / MOA assay, NRAS Q61K; format: biochemical; details: NRAS Q61K; Ras-Raf disruption/FRET/MOA assay; read-out: IC50* NRAS Q61K FRET data
Chain of NRAS Q61K (P01111 whole entry Q61K): as the sequence (P01111 whole entry Q61R) above, with R61K counted along it
Chain of NRAS Q61K (P62937 whole entry): as the sequence (P62937 whole entry) above
Method in brief: as §1

[1] = NCI-H358, 5-day treatment, read-out: Additional H358 Cell Viability assay data (K-Ras G12C, IC50)
[2] = read-out: IC50* KRAS G12C FRET data
[3] = read-out: IC50* NRAS G12C FRET data
[4] = read-out: IC50* KRAS G13D FRET data

Chain of KRAS Q61H (P01116-2 other isoform, or with tags, fused parts or gaps Q61H): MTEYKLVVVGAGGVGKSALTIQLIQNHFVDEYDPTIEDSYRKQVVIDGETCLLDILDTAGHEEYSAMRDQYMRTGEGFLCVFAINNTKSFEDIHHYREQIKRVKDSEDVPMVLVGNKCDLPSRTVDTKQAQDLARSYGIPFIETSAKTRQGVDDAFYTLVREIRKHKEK
Chain of KRAS Q61H (P62937 whole entry): as the sequence (P62937 whole entry) above

Row | Structure (SMILES) | IC50 (KRAS Q61H) [nM] | IC50 (NRAS Q61R) [nM] | IC50 (NRAS WT) [nM] | IC50 (NCI-H358 (K-Ras G12C); [1]) [µM] | IC50 (K-Ras G13C) [nM] | IC50 (KRAS G12S) [nM] | IC50 (K-Ras G12C; [2]) [nM] | IC50 (NRAS G12C; [3]) [nM] | IC50 (KRAS G13D; [4]) [nM] | IC50 (KRAS G12D) [nM] | IC50 (KRAS WT) [nM] | IC50 (NRAS Q61K) [nM] | IC50 (NCI-H358 (K-Ras G12C); read-out: Additional H358 Cell Viability assay data (K-Ras G12C, IC50, uM), NCI-H358, 5-day treatment) [µM] | IC50 (K-Ras G12C; IC50* KRAS G12C FRET data) [nM] | IC50 (NRAS G12C; IC50* NRAS G12C FRET data) [nM] | IC50 (KRAS G13D; IC50* KRAS G13D FRET data) [nM]
1 | C=CC(=O)N1CC[C@]2(C1)CN(C(=O)N(C)[C@H](C(=O)N[C@H]1Cc3nc(cs3)-c3ccc4c(c3)c(c(-c3cccnc3[C@H](C)OC)n4CC)CC(C)(C)COC(=O)[C@@H]3CCCN(N3)C1=O)C(C)C)CCO2 (atropisomer, axis not shown) [Example A354] | 10 to 100 | 100 to 1000 | 100 to 1000 | 0.01 to 0.1 | 100 to 1000 | 100 to 1000 | 100 to 1000 | 10 to 100 | 100 to 1000 | 100 to 1000 | 100 to 1000 | 10 to 100 | – | – | – | –
2 | C=CC(=O)N1CC[C@@]2(C1)OCN([C@H](C(=O)N[C@H]1Cc3cccc(c3)-c3ccc4c(c3)c(c(-c3cccnc3[C@H](C)OC)n4CC)CC(C)(C)COC(=O)[C@@H]3CCCN(N3)C1=O)C(C)C)C2=O (atropisomer, axis not shown) [Example A358] | 100 to 1000 | 1000 to 10000 | 100 to 1000 | 0.01 to 0.1 | 100 to 1000 | 1000 to 10000 | 100 to 1000 | 100 to 1000 | 1000 to 10000 | 1000 to 10000 | 100 to 1000 | 1000 to 10000 | – | – | – | –
3 | CO[C@@H](C)c1ncccc1-c1c2c3cc(ccc3n1CC(F)(F)F)-c1csc(n1)C[C@H](NC(=O)CCOC1CN(C(=O)C#CC(C)(C)N3CCC3)C1)C(=O)N1CCC[C@H](N1)C(=O)OCC(C)(C)C2 (atropisomer, axis not shown) [Example A363] | 1000 to 10000 | 1000 to 10000 | 1000 to 10000 | 0.01 to 0.1 | 1000 to 10000 | 1000 to 10000 | 10 to 100 | 10 to 100 | 1000 to 10000 | > 10000 | 1000 to 10000 | 1000 to 10000 | – | – | – | –
4 | C=CC(=O)N(C)C[C@H]1CCN1C(=O)N(C)[C@H](C(=O)N[C@H]1Cc2nc(cs2)-c2ccc3c(c2)c(c(-c2cccnc2[C@H](C)OC)n3CC)CC(C)(C)COC(=O)[C@@H]2CCCN(N2)C1=O)C(C)C (atropisomer, axis not shown) [Example A369] | 100 to 1000 | 100 to 1000 | 100 to 1000 | 0.01 to 0.1 | 100 to 1000 | 100 to 1000 | 100 to 1000 | 100 to 1000 | 1000 to 10000 | 1000 to 10000 | 100 to 1000 | 10 to 100 | – | – | – | –
5 | C=CC(=O)N1CC[C@H](C(=O)N(C)[C@H](C(=O)N[C@H]2Cc3cccc(c3)-c3ccc4c(c3)c(c(-c3cccnc3[C@H](C)OC)n4CC)CC(C)(C)COC(=O)[C@@H]3CCCN(N3)C2=O)C(C)C)[C@H]1C (atropisomer, axis not shown) [Example A373] | 100 to 1000 | 1000 to 10000 | 1000 to 10000 | 0.01 to 0.1 | 100 to 1000 | 1000 to 10000 | 100 to 1000 | 100 to 1000 | 1000 to 10000 | 1000 to 10000 | 1000 to 10000 | 1000 to 10000 | – | – | – | –
6 | C=CC(=O)N1CC[C@H](C(=O)N(C)[C@H](C(=O)N[C@H]2Cc3cc(O)cc(c3)-c3ccc4c(c3)c(c(-c3ncn(C)c3[C@H](C)OC)n4CC)CC(C)(C)COC(=O)[C@@H]3CCCN(N3)C2=O)C(C)C)C1 [Example A301] | 1000 to 10000 | > 10000 | – | – | 1000 to 10000 | 1000 to 10000 | – | – | – | > 10000 | > 10000 | > 10000 | 0.1 to 1 | 100 to 1000 | 100 to 1000 | > 10000
